Source: ChEMBL document CHEMBL4342453, “Prenylated p-Terphenyls from a Mangrove Endophytic Fungus, Aspergillus candidus LDJ-5” (J Nat Prod, 2020)
Converted amounts (≈) assume the structure as drawn.

Columns and labels:
HL-60 = experiment: Cytotoxicity against human HL60 cells after 72 hrs by MTT assay; assay type: functional, cell-based; settings: HL-60, 72 h
SH-SY5Y = experiment: Cytotoxicity against human SH-SY5Y cells after 24 hrs by SRB method
K562 = experiment: Cytotoxicity against human K562 cells after 72 hrs by MTT assay; settings: K562, 72 h
HCT-116 = experiment: Cytotoxicity against human HCT116 cells after 24 hrs by SRB method; settings: HCT-116, 24 h
Bel-7402 = experiment: Cytotoxicity against human Bel7402 cells after 24 hrs by SRB method; settings: Bel-7402, 24 h
MGC-803 = experiment: Cytotoxicity against human MGC803 cells after 24 hrs by SRB method; settings: MGC-803, 24 h
U-87 MG = experiment: Cytotoxicity against human U87 cells after 24 hrs by SRB method
A549 = experiment: Cytotoxicity against human A549 cells after 24 hrs by SRB method; settings: A549, 24 h
HeLa = experiment: Cytotoxicity against human HeLa cells after 24 hrs by SRB method
L02 = experiment: Cytotoxicity against human L02 cells after 24 hrs by SRB method; settings: L02, 24 h
Proteus = experiment: Antibacterial activity against Proteus by conventional broth dilution assay; assay type: functional

SMILES | IC50 (HL-60) [µM] | IC50 (SH-SY5Y) [µM] | IC50 (K562) [µM] | IC50 (HCT-116) [µM] | IC50 (Bel-7402) [µM] | IC50 (MGC-803) [µM] | IC50 (U-87 MG) [µM] | IC50 (A549) [µM] | IC50 (HeLa) [µM] | IC50 (L02) [µM] | MIC (Proteus) [µg/mL]
COc1ccc(-c2c(OC)cc(-c3ccc(O)c(CC=C(C)C)c3)c(OC)c2O)cc1OC | > 50 | 15.6 | 15.9 | 6.2 | > 50 | 8.1 | > 50 | 7.6 | 8.5 | > 50 | –
COc1cc2oc3c(OC)c(-c4cc(CC=C(C)C)c(O)c(OC)c4)cc(OC)c3c2cc1OC | > 50 | > 50 | > 50 | > 50 | > 50 | > 50 | > 50 | > 50 | > 50 | > 50 | –
COc1cc2oc3c(OC)c(-c4cc(CC=C(C)C)c(O)c(OC)c4)cc(OC)c3c2cc1O | 3.4 | 2.2 | > 50 | 0.9 | 16 | 1.4 | > 50 | 2.8 | 10.1 | 17.9 | –
COc1cc(-c2c(OC)cc(-c3ccccc3)c(OC)c2O)cc2c1OC(C)(C)CC2 | > 50 | 12.4 | > 50 | 16.9 | 12.6 | 12.5 | > 50 | 16.3 | 11.5 | 29.7 | –
COc1cc(-c2ccc(O)c(O)c2)c(OC)c(O)c1-c1ccc(OCC=C(C)C)c(O)c1 | > 50 | 0.6 | > 50 | 0.5 | > 50 | 0.7 | 13.8 | 0.4 | 2 | 3.5 | 22 (≈ 50.2 µM)
COc1c(-c2ccccc2)cc(OC)c2c1oc1cc(O)c(OCC=C(C)C)cc12 | > 50 | 17.9 | 5 | 19.8 | 14.9 | 16.3 | 10.3 | 19.1 | 14 | 16.7 | –
COc1cc(-c2c(OC)cc(-c3ccccc3)c(OC)c2O)ccc1OC/C=C(\C)CO | 7.1 | 10.4 | > 50 | 9.3 | 12.4 | 11 | > 50 | 10.2 | 8.3 | 19.9 | –
COc1c(-c2ccccc2)cc(OC)c2c1oc1c3c(c(O)cc12)OC(C)(C)C=C3 | > 50 | > 50 | > 50 | > 50 | > 50 | > 50 | > 50 | > 50 | > 50 | > 50 | –
COc1cc(-c2c(OC)cc(-c3ccccc3)c(OC)c2O)cc(CC=C(C)C)c1O | > 50 | 16.7 | > 50 | 14.7 | 11.1 | 14.5 | > 50 | 14.8 | 11.4 | 24.4 | –
